The text below walks through data of patent US20240382481A1 (priority 2021, published 2024).

Some results are limits rather than exact numbers.

Targets include SRPK3/MSSK1/STK23 (Homo sapiens, UniProt Q9UPE1); SRPK1 (Homo sapiens, UniProt Q96SB4); SRPK2 (Homo sapiens, UniProt P78362).
Experiment in all cases: biochemical

Sequence of SRPK3/MSSK1/STK23 (Q9UPE1 whole entry): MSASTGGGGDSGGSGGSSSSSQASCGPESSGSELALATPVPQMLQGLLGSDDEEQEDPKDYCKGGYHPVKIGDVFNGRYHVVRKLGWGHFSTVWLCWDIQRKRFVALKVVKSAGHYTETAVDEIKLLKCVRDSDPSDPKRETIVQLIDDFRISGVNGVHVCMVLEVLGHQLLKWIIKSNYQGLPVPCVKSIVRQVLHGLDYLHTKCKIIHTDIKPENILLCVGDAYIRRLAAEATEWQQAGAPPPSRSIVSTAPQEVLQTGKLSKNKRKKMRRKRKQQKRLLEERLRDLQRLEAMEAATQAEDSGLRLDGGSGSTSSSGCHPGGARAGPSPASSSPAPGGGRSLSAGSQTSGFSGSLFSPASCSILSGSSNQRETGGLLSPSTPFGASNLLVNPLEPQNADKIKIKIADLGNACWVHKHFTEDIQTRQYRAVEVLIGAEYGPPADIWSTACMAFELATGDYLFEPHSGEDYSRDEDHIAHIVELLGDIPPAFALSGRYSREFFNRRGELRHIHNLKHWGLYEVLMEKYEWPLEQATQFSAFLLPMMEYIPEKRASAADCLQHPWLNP
Sequence of SRPK2 (P78362 whole entry, species assumed): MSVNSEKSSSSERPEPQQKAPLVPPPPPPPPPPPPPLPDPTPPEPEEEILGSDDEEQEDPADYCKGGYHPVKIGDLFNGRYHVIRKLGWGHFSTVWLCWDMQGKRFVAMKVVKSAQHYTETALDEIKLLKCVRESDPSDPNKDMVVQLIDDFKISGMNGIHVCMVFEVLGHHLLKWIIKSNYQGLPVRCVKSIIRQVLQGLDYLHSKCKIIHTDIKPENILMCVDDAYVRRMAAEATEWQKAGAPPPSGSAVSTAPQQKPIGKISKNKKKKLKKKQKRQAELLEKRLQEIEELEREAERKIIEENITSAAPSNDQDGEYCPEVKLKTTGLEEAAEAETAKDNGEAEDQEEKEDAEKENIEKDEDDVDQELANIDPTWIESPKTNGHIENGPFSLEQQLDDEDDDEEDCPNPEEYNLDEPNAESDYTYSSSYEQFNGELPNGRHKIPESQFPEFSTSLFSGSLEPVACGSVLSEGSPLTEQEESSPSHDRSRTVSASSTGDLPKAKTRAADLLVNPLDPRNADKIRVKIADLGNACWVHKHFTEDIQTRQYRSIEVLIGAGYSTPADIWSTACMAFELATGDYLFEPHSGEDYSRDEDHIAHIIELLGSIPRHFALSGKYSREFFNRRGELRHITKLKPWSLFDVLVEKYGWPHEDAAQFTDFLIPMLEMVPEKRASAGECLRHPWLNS
Sequence of SRPK1 (Q96SB4 whole entry, species assumed): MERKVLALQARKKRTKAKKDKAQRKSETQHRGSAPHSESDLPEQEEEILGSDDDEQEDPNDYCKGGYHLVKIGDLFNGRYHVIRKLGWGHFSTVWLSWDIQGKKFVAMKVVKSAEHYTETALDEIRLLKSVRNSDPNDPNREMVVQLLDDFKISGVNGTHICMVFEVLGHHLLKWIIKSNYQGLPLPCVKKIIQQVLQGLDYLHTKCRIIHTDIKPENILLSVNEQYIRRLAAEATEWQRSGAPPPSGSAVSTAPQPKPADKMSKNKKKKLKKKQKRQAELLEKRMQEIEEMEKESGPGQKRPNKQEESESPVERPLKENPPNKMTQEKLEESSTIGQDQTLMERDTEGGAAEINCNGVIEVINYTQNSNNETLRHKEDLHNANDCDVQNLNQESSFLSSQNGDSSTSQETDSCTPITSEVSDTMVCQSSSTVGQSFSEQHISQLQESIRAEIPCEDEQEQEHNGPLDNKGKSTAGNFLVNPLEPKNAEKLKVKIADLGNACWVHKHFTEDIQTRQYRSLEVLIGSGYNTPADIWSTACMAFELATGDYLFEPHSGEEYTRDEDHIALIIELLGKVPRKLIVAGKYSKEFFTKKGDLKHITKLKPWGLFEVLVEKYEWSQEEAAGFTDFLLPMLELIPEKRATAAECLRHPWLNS

For the compound `CN(c1ncccc1Cn1c(=O)ccc2cnc(-c3nc4cc(Cl)ccc4[nH]3)cc21)S(C)(=O)=O` [Compound B20], the IC50 lay in the range of 500 to 2500 nM against SRPK3/MSSK1/STK23, 50 to 500 nM against SRPK1 and 50 to 500 nM on SRPK2.
`CCN(c1ncccc1Cn1ccc2cnc(-c3nc4cc(Cl)ccc4[nH]3)cc21)S(C)(=O)=O` [Compound B16]: the 50% inhibitory concentration (IC50) against SRPK3/MSSK1/STK23, against SRPK1 and on SRPK2 was 50 to 500 nM throughout.
`CN(c1ncccc1CNc1ccnc(-c2nc3cc(C(C)(C)C)c(F)cc3[nH]2)n1)S(C)(=O)=O` [Compound B18]: the IC50 at SRPK3/MSSK1/STK23 is less than 50 nM; at SRPK1 it was 50 to 500 nM; at SRPK2, 500 to 2500 nM.
The like results for `Cc1cc(Cl)cc2nc(-c3nccc(NCc4cccnc4N(C)S(C)(=O)=O)n3)[nH]c12` [Compound B9] were, in that order, less than 50 nM, less than 50 nM and 50 to 500 nM.
In the same order, the values of `CN(c1ncccc1CNc1cccc(-c2nc3cc(Cl)ccc3n2C)n1)S(C)(=O)=O` [Compound B6] are less than 50 nM, 50 to 500 nM and 50 to 500 nM.
Regarding `CCn1c(-c2nccc(NCc3cccnc3N(C)S(C)(=O)=O)n2)nc2cc(Cl)ccc21` [Compound B15], the concentration for half-maximal inhibition (IC50) is less than 50 nM against SRPK1 and 500 to 2500 nM against SRPK2.
Take `Cc1cc2cnc(-c3nc4cc(Cl)ccc4n3C)nc2n1Cc1cccnc1N(C)S(C)(=O)=O` [Compound B21]: the IC50 on SRPK3/MSSK1/STK23 was 50 to 500 nM; against SRPK1, less than 50 nM; on SRPK2, 50 to 500 nM.
With `CN(c1ncccc1CNc1ccnc(-c2nc3cc(Cl)c(Cl)cc3n2C)n1)S(C)(=O)=O` [Compound B19], the IC50 at SRPK2 is 50 to 500 nM.
Regarding `Cc1cc2cnc(-c3nc4cc(Cl)c(Cl)cc4n3C)nc2n1Cc1cccnc1N(C)S(C)(=O)=O` [Compound B22], the IC50 is 50 to 500 nM on SRPK3/MSSK1/STK23, less than 50 nM against SRPK1 and 50 to 500 nM against SRPK2.
Consider `CN(c1ncncc1CNc1ccnc(-c2nc3cc(Cl)ccc3[nH]2)n1)S(C)(=O)=O` [Compound B4], for which the IC50 was in the range of 50 to 500 nM against SRPK1 and 500 to 2500 nM against SRPK2.
Take `CN(c1ccccc1CNc1cccc(-c2nc3cc(Cl)ccc3[nH]2)n1)S(C)(=O)=O` [Compound B3]: the IC50 is less than 50 nM at SRPK1 and 50 to 500 nM against SRPK2.
In the same order, the values of `CCN(c1ncccc1CNc1ccnc(-c2nc3cc(Cl)ccc3[nH]2)n1)S(C)(=O)=O` [Compound B8] are less than 50 nM and 50 to 500 nM.
